Patent publication US7355063B2, “Shogaol compound and tyrosinase activity inhibitor comprising the compound” (Toagosei Co., Ltd., priority 2003, dated 2008)

Assays:
[1] = Test of scavenging DPPH radical (Test Example 8, 517 nm); conditions: final concentration of 10 μg/mL; 20 minutes, room temperature
Experimental: Using the compound 7 obtained in Example 2 as well as dl-α-tocopherol (manufactured by Tokyo Kasei Kogyo Co., Ltd.) and butylhydroxytoluene (BHT) as comparative controls, a test of scavenging DDPH (1,1-diphenyl-2-picrylhydrazyl) radical, a stable radical, was carried out.
1 ml of 200 μM DPPH ethanol solution was added to 800 μl of 100 mM Tris-HCl buffer (pH 7.4) and 200 μl of an ethanol solution of the compound 7 (a final concentration of 10 μg/mL), followed by sufficient stirring. After the resulting mixture was allowed to stand in a dark place at room temperature for 20 minutes, the absorbance at 517 nm was measured (absorbance of the test solution)
The compound 13 of the invention as well as dl-α-tocopherol and butylhydroxytoluene as a known radical scavenger were similarly tested.
As a control, 800 μl of 100 mM Tris-HCl buffer (pH 7.4), 200 μl of ethanol, and 1 ml of 200 μM DPPH ethanol solution were used in the same manner as described above and the absorbance was measured (absorbance of the control solution).
With the individual compounds, the same measurement was repeated three times, and the mean value was inserted in the following formula to calculate a DPPH radical-scavenging ratio (%). DPPH radical-scavenging ratio (%)=[1−(absorbance of sample solution/absorbance of control solution)]×100

[2] = Test of scavenging DPPH radical (Test Example 9, microplate reader, 540 nm); conditions: final concentration of 25 μg/mL; 20 minutes, room temperature
Excerpt: Using the compound 36 obtained in Example 20, the compound 37 obtained in Example 21, the compound 38 obtained in Example 22, the compound 39 obtained in Example 23, the compound 40 obtained in Example 24, the compound 42 obtained in Example 26, the compound 45 obtained in Example 29, the compound 46 obtained in Example 30, the compound 48 obtained in Example 32 and, as a comparative control, dl-α-tocopherol (manufactured by Tokyo Kasei Kogyo Co., Ltd.), a test of scavenging DDPH (1,1-diphenyl-2-picrylhydrazyl) radical, a stable radical, was carried out.
100 μl of 800 μM DPPH ethanol solution was added to 80 μl of 100 mM Tris-HCl buffer (pH 7.4) and 20 μl of an ethanol solution of the compound 36 (final concentration of 25 μg/mL), followed by sufficient stirring. After the resulting mixture was allowed to stand in a dark place at room temperature for 20 minutes, the absorbance at 540 nm was measured on a microplate reader (absorbance of the test solution).
The compounds 37, 38, 39, 40, 42, 45, 46, and 48 of the invention as well as dl-α-tocopherol as a known radical scavenger were similarly tested.
As a control, using 80 μl of 100 mM Tris-HCl buffer (pH 7.4), 20 μl of ethanol, and 100 μl of 800 μM DPPH ethanol solution, the same operation was carried out as described above and the absorbance was measured (absorbance of the control solution).
With the individual compounds, the same measurement was repeated four times, and the mean value was inserted in the following formula to calculate a DPPH radical-scavenging ratio. DPPH radical-scavenging ratio (%)=[1−(absorbance of sample solution/absorbance of control solution)]×100

[3] = Test of suppressing lipid peroxide formation using linoleic acid
Experimental: Using the compound 7 obtained in Example 2, the compound 38 obtained in Example 22, the compound 40 obtained in Example 24, the compound 42 obtained in Example 26, the compound 46 obtained in Example 30, and as a comparative control, dl-α-tocopherol (manufactured by Tokyo Kasei Kogyo Co., Ltd.), a test of suppressing lipid peroxide formation was carried out using linoleic acid.
(1) After ethanol (2.0 g) was added to linoleic acid (0.2 g, manufactured by Tokyo Kasei Kogyo Co., Ltd.), the compound 7 (0.01 g), and a surfactant Nissan OT-221 (0.4 g, manufactured by NOF Corporation) placed in a 50-ml screw vial and they was dissolved one another, distilled water (17.39 g) was added to the resulting solution and the whole was stirred. Then, the whole was tightly sealed and allowed to stand in a constant-temperature chamber at 40° C. Such sample was prepared in a duplex manner.
The same operation was carried out on the compounds 38, 40, 42, 46, dl-α-tocopherol, and a sample with addition of no test compound (blank).
(2) The amount of remaining linoleic acid after one week, 2 weeks, 3 weeks, and 4 weeks from the start of the test was quantitatively determined by HPLC.
The HPLC analytical conditions were as follows: Wavelength for detection: 210 nm; Mobile phase: a mixed solution of a Mc Ilvaine buffer adjusted to pH 2.6 and methanol (10:90); Flow rate: 1 ml/min; Column: ODS-80Ts (4.6 φmm×150 mm); and Column temperature: 40° C.
(3) Quantitative determination by HPLC was carried out on each sample one time. The ratio of remaining linoleic acid was calculated on the basis of the mean value of values obtained in two-times measurement.

mushroom tyrosinase = assay: Tyrosinase activity inhibition test using L-dopa as substrate (Test Examples 3 to 6, microplate reader, 490 nm); type: biochemical; conditions: Table 6, 0.50 mg/mL
Experimental: Using the compound 37 obtained in Example 21, the compound 38 obtained in Example 22, the compound 39 obtained in Example 23, and arbutin (manufactured by Tokyo Kasei Kogyo Co., Ltd.) as a comparative control, a tyrosinase activity inhibition test was carried out using L-dopa as a substrate.
The specific test procedures are as follows. • (1) 72 μl of a phosphate buffer prepared by dissolving 1.000 g of sodium dihydrogen phosphate and 1.186 g of disodium hydrogen phosphate in 500 ml of distilled water, 80 μl of a substrate solution prepared by dissolving 32.7 mg of L-DOPA in 200 ml of distilled water, and 8 μl of a test solution prepared by dissolving the test compound in dimethyl sulfoxide were mixed together. • (2) 80 μl of an enzyme solution prepared by dissolving 3.0 mg (2400 units; manufactured by Sigma Corporation) of mushroom tyrosinase in 7.0 ml of distilled water and diluting the solution with the above phosphate buffer so as to make it five times in amount was added to the solution prepared in (1), and the whole was stirred for 15 seconds. The resulting solution was maintained at 25° C., and the absorbance at 490 nm was measured by a microplate reader one minute and 45 seconds later and 2 minutes and 45 seconds later. • (3) The test operations in the above (1) and (2) were conducted four times for the individual test compounds and blank test (only dimethyl sulfoxide), and the resulting numeric value was inserted in the following calculation formula and a mean value thereof was regarded as a tyrosinase activity inhibition ratio (%). Tyrosinase activity inhibition ratio (%)=[(T^1−T^2)/T^1]×100 • T^1=difference in absorbance of solution with addition of no test compound between 2 minutes and 45 seconds later and one minute and 45 seconds later • T^2=difference in absorbance of solution with addition of test compound was added between 2 minutes and 45 seconds later and one minute and 45 seconds later
(§1) Using the compound 42 obtained in Example 26, the compound 45 obtained in Example 29, the compound 46 obtained in Example 30, and arbutin (manufactured by Tokyo Kasei Kogyo Co., Ltd.) as a comparative control, a tyrosinase activity inhibition test was carried out using L-dopa as a substrate. The test procedure was in accordance with Test Example 3.
as §1, with “34” for “42”, “18,” for “26,”, “47” for “45”, “31,” for “29, the compound 46 obtained in Example 30,”
Using the compound 48 obtained in Example 32 and arbutin (manufactured by Tokyo Kasei Kogyo Co., Ltd.) as a comparative control, a tyrosinase activity inhibition test was carried out using L-dopa as a substrate. The test procedure was in accordance with Test Example 3.

Row | Ratio of remaining linoleic acid (%) ([3]; After 1 week at 40° C.) | Ratio of remaining linoleic acid (%) ([3]; After 2 weeks at 40° C.) | Ratio of remaining linoleic acid (%) ([3]; After 3 weeks at 40° C.) | Ratio of remaining linoleic acid (%) ([3]; After 4 weeks at 40° C.) | Tyrosinase activity inhibition ratio (%) (mushroom tyrosinase; 0.25 mg/mL) | Tyrosinase activity inhibition ratio (%) (mushroom tyrosinase; 0.5 mg/mL) | Compound | DPPH radical-scavenging ratio (%) [1] [%] | DPPH radical-scavenging ratio (%) [2] [%]
1 | 88.7 | 81.3 | 69.7 | 50.0 |  |  | Cc1c(C)c2c(c(C)c1O)CCC(C)(CCCC(C)CCCC(C)CCCC(C)C)O2 (racemic) [Tocopherol, dl-α-tocopherol] | 28.4 | 14.9
2 |  |  |  |  | 38.2 | 47.1 | COc1cc(CCC(O)CC(CCCCCCO)OC)ccc1O (stereo not drawn) [Compound 48] |  | 33.5
